One data set relates to Ki67. Nature of the data set: Immunohistochemistry of Ki67 in SKOV3 xenograft. In kind it is in vivo, human SKOV3 cells in nude mouse.
In data set [1] the test system is SKOV3 cells. The experiment in a line: Cell cycle by flow cytometry, SKOV3. The format is cell-based, human. The following applies: SKOV3, 24 h. (In general: Flow cytometry measures light scatter and fluorescence of single cells or particles in a stream.)
Data set [2] has as its system BCL6-low-expressing ovarian cancer cell line IGROV-1 (BCL6低表达卵巢癌细胞株). The experiment in a line: SRB proliferation assay, BCL6-low ovarian cancer cell line. In kind it is cell-based, human. Background: Sulforhodamine B stains cellular protein and so reports cell mass.
Data set [3] deals with ES-2 cells. The experiment in a line: ES-2-luc ovarian cancer intraperitoneal metastasis mouse model. In kind it is in vivo, human ES-2 cells in mouse. The note with it: 50mg/kg.
Data set [4] concerns SKOV3 cells. The experiment in a line: Transwell invasion assay, SKOV3. The format is cell-based, human.
The next data set deals with P53. The experiment in a line: qRT-PCR of BCL6 downstream gene P53 in ovarian cancer cells. The format is cell-based. The note with it: ES-2, H08910PM, SKOV3, 24 h. In general terms: Real-time PCR tracks product formation cycle by cycle.
For data set [5], the system named is ES-2 cells. The experiment in a line: Cell cycle by flow cytometry, ES-2. The format is cell-based, human. The following applies: ES-2, 24 h.
In data set [6] the test system is SKOV3 cells. The experiment in a line: Scratch lateral migration assay, SKOV3. The format is cell-based, human. The following applies: 1, 5, 10 μM, about 12 h.
The nature of data set [7]: Body weight, behaviour and organ HE staining in SKOV3 xenograft mice.
Data set [8] concerns PARP. The experiment in a line: PARP protein by electrophoresis (blot), ES-2. In kind it is cell-based, human.
In data set [9] the test system is CyclinB1, cdc25C, CyclinD1. Nature of the data set: Cell cycle regulatory proteins by electrophoresis (blot), ES-2. In kind it is cell-based, human.
Data set [10] has as its system BCL6 downstream genes ATR, P53, CDKN1A (BCL6下游基因). Nature of the data set: qPCR of BCL6 downstream genes in SKOV3 xenograft. In kind it is in vivo, human SKOV3 cells in nude mouse.
For data set [11], the system named is mouse germinal center formation (小鼠生发中心的形成). Nature of the data set: Mouse germinal center formation model. The format is in vivo. The following applies: 50mg/kg/d, intraperitoneal, 12 days.
In data set [12] the test system is CyclinB1, cdc25C, CyclinD1. The experiment in a line: Cell cycle regulatory proteins by electrophoresis (blot), SKOV3. The format is cell-based, human.
Data set [13] has as its system PARP. The experiment in a line: PARP protein by electrophoresis (blot), SKOV3. The format is cell-based, human.
Data set [14] relates to BCL6 transcriptional repression activity (BCL6的转录抑制活性). The experiment in a line: Luciferase reporter gene assay of BCL6 transcriptional repression (293T cells). In kind it is cell-based. The following applies: 24 h.
For the next data set, the system named is CDKN1A. Nature of the data set: qRT-PCR of BCL6 downstream gene CDKN1A in ovarian cancer cells. In kind it is cell-based. The following applies: ES-2, H08910PM, SKOV3, 24 h.
For data set [15], the system named is ES-2 cells. The experiment in a line: Scratch lateral migration assay, ES-2. In kind it is cell-based, human. The note with it: 1, 5, 10 μM, about 12 h.
The subject of data set [16] is ES-2 cells. Nature of the data set: Apoptosis by AnnexinV/PI flow cytometry, ES-2. The note with it: ES-2, 48 h. In kind it is cell-based, human.
Data set [17] has as its target T1, BCL6-SMRT interaction (BCL6片段蛋白与多肽SMRT的相互作用) (Homo sapiens, UniProt P41182).
T1 construct: 本发明所需BCL6蛋白N端的BTB/POZ结构域序列为; made in house
Nature of the data set: HTRF assay of inhibition of BCL6 fragment protein - SMRT polypeptide interaction. In kind it is biochemical.

Data set [18] relates to normal cell lines HAF, L02, NCM460, 293T, PNT1A (正常细胞株). The experiment in a line: SRB proliferation assay, normal cell lines. The note with it: Fig. 4(C). In kind it is cell-based, human.
A short description of data set [19]: Behaviour and adverse reactions in ES-2 intraperitoneal metastasis mice. The following applies: 50mg/kg, continuous dosing, 30 days.
For data set [20], the system named is ES-2 cells. The experiment in a line: Transwell invasion assay, ES-2. In kind it is cell-based, human.
A further data set concerns ATR. Nature of the data set: qRT-PCR of BCL6 downstream gene ATR in ovarian cancer cells. In kind it is cell-based. The following applies: ES-2, H08910PM, SKOV3, 24 h.
The test system of the next data set is SKOV3 tumor (SKOV3肿瘤). Nature of the data set: SKOV3 subcutaneous xenograft in nude mice, tumor growth. The format is in vivo, human SKOV3 cells in nude mouse. The following applies: intraperitoneal once daily, about 21 days.
For data set [21], the system named is SKOV3 cells. Nature of the data set: Apoptosis by AnnexinV/PI flow cytometry, SKOV3. The format is cell-based, human. The following applies: SKOV3, 48 h.
The subject of data set [22] is BCL6-high-expressing ovarian cancer cells ES-2, SKOV3, H08910PM, MCAS, CAOV3, OVCAR8 (BCL6高表达卵巢癌细胞). The experiment in a line: Colony formation assay. The format is cell-based, human.
The conditions of data set [23]: mouse, in vivo.
In data set [24] the target is T2, BCL6 (Homo sapiens, UniProt P41182). The note with it: greater than 50 or even 200; cited from earlier work.
Data set [25] deals with patients with platinum-sensitive recurrent ovarian cancer (铂敏感的复发型卵巢癌患者). The note with it: clinical phase II and III; cited from earlier work.
In data set [26] the target is T2, BCL6. The note with it: cited from earlier work.
For data set [27] the following is noted: animal level; cited from earlier work.

Consider `C[C@@H]1CN(c2ncc(F)c(Nc3ccc4oc(=O)ccc4c3)n2)C[C@H](C)N1` [WK369], for which the “expression of tumor proliferation marker Ki67” value with Ki67 was “显著降低”. Further, the “cell cycle arrest at G2M phase” value in the data set on SKOV3 cells [1] and in the data set on ES-2 cells [5] was “浓度依赖性地诱导” each time. In addition, the IC50 in data set [2] (BCL6-low-expressing ovarian cancer cells (IGROV-1), 72 h, read-out: half-maximal proliferation inhibition activity) was approximately 16 µM; in data set [17] (6His-SMRT 200 nM, BCL6-GST 6.25 nM, room temperature overnight, read-out: half-maximal inhibitory concentration (IC50)) it was 315 nM. The “difference in half-maximal proliferation inhibition activity between BCL6-high and BCL6-low ovarian cancer cell lines” value in [2] (Fig. 4(D)) was “具有显著性差异”. Besides, the “survival rate of mice” value in the data set on ES-2 cells [3] is “有效提高”. Moreover, the “intraperitoneal spread and metastasis” value in the data set with ES-2 cells [3] (30 days) is listed as “有效抑制”. Also, the “tumor growth (bioluminescence)” value in the data set on ES-2 cells [3] (30 days) was “显著降低”. In addition, the “number of tumor nodules on the surface of abdominal organs (liver, spleen, kidney, intestine, ovary)” value with ES-2 cells [3] (30 days, compared with control group) is given as “明显减少”. Besides, the “number of invading cells” value is recorded as “已显著减少” in the data set on SKOV3 cells [4] (SKOV3, 1 μM, 12-24 h) and “已显著减少” in the data set with ES-2 cells [20] (ES-2, 1 μM, 12-24 h). The cells that invade result in the data set with SKOV3 cells [4] (SKOV3, 10 μM, 12-24 h) was “只有极少数的细胞发生侵袭”; in the data set with ES-2 cells [20] (ES-2, 10 μM, 12-24 h), “只有极少数的细胞发生侵袭”. In addition, the inhibition of invasion result is listed as “显著抑制” with SKOV3 cells [4] (SKOV3, high concentration (FX1 10 μM), WK369 1, 5, 10 μM) and “显著抑制” in the data set on ES-2 cells [20] (ES-2, high concentration (FX1 10 μM), WK369 1, 5, 10 μM). For the same compound, the “upregulation of P53 expression” value with P53 (1, 5, 10, 20 μM) is listed as “几倍至十几倍”. In addition, the “upregulation of P53 expression compared with FX1” value with P53 (FX1 20 μM) is listed as “更为显著地上调”. Moreover, the inhibition of migration result in the data set on SKOV3 cells [6] and in the data set with ES-2 cells [15] was “浓度依赖性地抑制” each time. For the same compound, the “toxicity to major organs (heart, liver, spleen, lung, kidney), HE staining” value in [7] is recorded as “没有明显毒性”. In addition, the “full-length PARP protein” value in the data set on PARP [8] and in the data set on PARP [13] was “显著下调” throughout. For the same compound, the “truncated PARP protein” value with PARP [8] and in the data set on PARP [13] was “上调” throughout. For the same compound, the CyclinB1 expression entry in data set [9] and in data set [12] was “显著下调” in each case. Besides, the CyclinD1 expression result in data set [9] and in [12] was “显著下调” in each case. Also, the cdc25C expression result in data set [9] and in data set [12] was “显著下调” in each case. Further, the “upregulation of BCL6 downstream genes in vivo compared with positive compound” value in data set [10] is on record as “更好地上调”. For the same compound, in data set [11], the “decrease in germinal center B cell proportion compared with positive compound” value was “下降比例更为显著”. The “inhibition of mouse germinal center formation” value in [11] is “均能抑制小鼠生发中心的形成”. Besides, the “BCL6 transcriptional repression activity at 20 μM” value in [14] (20 μM) is “完全消除”. Besides, in [14] (concentration series, compared with positive compound), the “inhibition of BCL6 transcriptional repression activity” value is reported as “浓度依赖性抑制BCL6的转录抑制活性,效果显著优于阳性化合物”. Moreover, the “upregulation of CDKN1A expression” value in the data set with CDKN1A (1, 5, 10, 20 μM, highest) is given as “最高可上调几十倍”. Besides, the “upregulation of CDKN1A expression compared with FX1” value with CDKN1A (FX1 20 μM) is “更为显著地上调”. Moreover, the “induction of apoptosis compared with positive compound” value in the data set with ES-2 cells [16] and in the data set on SKOV3 cells [21] was “更显著地诱导” in each case. Further, the “fold improvement over FX1 in inhibiting BCL6 fragment protein - SMRT interaction” value in data set [17] (WK369 versus positive compound FX1) is approximately 120 fold. The “difference in half-maximal proliferation inhibition activity between human ovarian cancer and human normal cell lines” value in data set [18] is recorded as “具有显著性差异”. The toxicity entry in [19] is reported as “没有明显毒性”. For the same compound, in the data set on ATR (1, 5, 10, 20 μM), the “upregulation of ATR expression” value is given as “几倍至十几倍”. Further, in the data set on ATR (FX1 20 μM), the “upregulation of ATR expression compared with FX1” value is “更为显著地上调”. Further, the “inhibition of tumor growth compared with FX1 (50mg/kg)” value in the data set on SKOV3 tumor (SKOV3肿瘤) (25mg/kg) is “显著优于阳性化合物FX1”. The “inhibition of tumor growth, 50mg/kg compared with 25mg/kg” value in the data set with SKOV3 tumor (SKOV3肿瘤) (50mg/kg vs 25mg/kg) is reported as “效果显著优于本发明化合物WK36925mg/kg的给药剂量”. Moreover, in the data set on SKOV3 tumor (SKOV3肿瘤) (50mg/kg), the tumor proliferation entry is on record as “肿瘤增殖非常缓慢”. Also, the “inhibition of tumor growth” value with SKOV3 tumor (SKOV3肿瘤) (25 and 50mg/kg) is “有效抑制肿瘤的生长”. In addition, the “inhibition of colony formation compared with FX1” value in data set [22] (BCL6-high-expressing lines) is on record as “显著优于阳性化合物FX1”. Also, the “inhibition of colony formation” value in data set [22] (BCL6-high-expressing lines, one week) is given as “很显著的抑制效果”. Further, in [22] (compared with BCL6-low-expressing line), the “inhibition of colony formation, BCL6-high compared with BCL6-low ovarian cancer cell lines” value was “对BCL6高表达卵巢癌细胞株的抑制效果更为明显”. Also, in [23], the “abnormal behaviour and adverse reactions” value is on record as “并未发现小鼠异常行为和不良反应”. In addition, in [23], the “body weight change compared with blank control” value was “没有明显变化”.

As for `O=C(O)CC(C(=O)O)N1C(=O)C(=C2C(=O)Nc3ccc(Br)cc32)SC1=S` (stereo not shown) [79-6], the “concentration exerting function at molecular and cellular level” value on BCL6 [24] was more than 50 µM.

For the compound `O=C(c1cc(Cc2n[nH]c(=O)c3ccccc23)ccc1F)N1CCN(C(=O)C2CC2)CC1` [奥卡帕尼], the “overall survival (OS)” value in data set [25] is recorded as “并不能延长”.

As for `CNC(=O)COc1cc2cc(Nc3nc(N4C[C@H](C)C[C@H](C)C4)ncc3Cl)ccc2n(C)c1=O` [BI3802], at BCL6 [26], the “biological activity at animal level” value was “生物活性差”. The absorption result in data set [27] is reported as “很难被吸收”.

These data come from patent publication CN112516145A, “小分子化合物wk369在制备治疗卵巢癌药物中的应用” (East China Normal University, priority 2019, dated 2021).
